Laboratory results: patent publication US20250171459A1, “2-METHYL-4',5'-DIHYDROSPIRO[PIPERIDINE-4,7'-THIENO[2,3-C]PYRAN] DERIVATIVES AS INHIBITORS OF APOL1 AND METHODS OF USING SAME” (Vertex Pharmaceuticals Incorporated, priority 2022, published 2025)

What follows are molecules tested against T1, APOL1 (Homo sapiens, UniProt O14791) (assay: MultiTox-Fluor Multiplex Cytotoxicity Assay in tet-inducible APOL1 T-REx-HEK293 cells (cell rescue, ratio of dead to live cells)). Details: tet-inducible transgenic APOL1 T-REx-HEK293 cell lines, 50 ng/mL tet, 24 hours; read-out: IP50 (i.e., IC50 for cell proliferation).
T1 sequence (O14791 1-398 S342G/I384M): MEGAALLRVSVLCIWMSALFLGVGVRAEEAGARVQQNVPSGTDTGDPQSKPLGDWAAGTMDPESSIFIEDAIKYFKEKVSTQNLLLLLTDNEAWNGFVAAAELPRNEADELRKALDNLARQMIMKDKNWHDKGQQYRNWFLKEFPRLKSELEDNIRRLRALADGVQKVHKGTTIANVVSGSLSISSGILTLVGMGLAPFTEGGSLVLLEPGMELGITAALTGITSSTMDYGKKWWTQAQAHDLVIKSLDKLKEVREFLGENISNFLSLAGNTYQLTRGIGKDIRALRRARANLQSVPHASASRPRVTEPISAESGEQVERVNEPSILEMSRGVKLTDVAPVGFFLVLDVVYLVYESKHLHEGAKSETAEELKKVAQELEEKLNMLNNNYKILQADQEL
Assay type: cell-based
Procedure, shortened: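 T-REx-HEK293 cells with tet-inducible APOL1 were treated with compound (10 μM top, 10-point 3-fold dilution, duplicate) plus 50 ng/mL tetracycline for 24 h at 37° C, in DMEM with 2% tet-free FBS. MultiTox-Fluor protease signals gave a dead/live ratio, normalized to no tet (100% viability) and tet alone (0%).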
`CCc1cc2c(s1)[C@]1(CCN(Cc3cn(CCS(C)(=O)=O)nn3)[C@@H](C)C1)OCC2O` (stereo partly drawn) [Compound 1038, (2′S,7R)-2-ethyl-2′-methyl-1′-[[1-(2-methylsulfonylethyl)triazol-4-yl]methyl]spiro[4,5-dihydrothieno[2,3-c]pyran-7,4′-piperidine]-4-ol] was tested, and the IC50 was < 100 nM.
In the case of `C[C@H]1C[C@@]2(CCN1Cc1cnn(CCS(C)(=O)=O)c1)OCCc1cc(Cl)sc12` [Compound 697, (2′S, 7R)-2-chloro-2′-methyl-1′-[[1-(2-methylsulfonylethyl)pyrazol-4-yl]methyl]spiro[4,5-dihydrothieno[2,3-c]pyran-7,4′-piperidine]], the IC50 is reported as < 100 nM.
With `CCc1cc2c(s1)CCO[C@@]21CCN(Cc2cn(Cc3c[nH]nc3C)nn2)[C@@H](C)C1` [Compound 57] the IC50 was < 100 nM.
`CCc1cc2c(s1)CCO[C@@]21CCN(C[C@@H](C)O)[C@@H](C)C1` [Compound 237] showed an IC50 of 100 to 500 nM.
With `C[C@H]1C[C@@]2(CCN1Cc1ccncc1F)OCCc1cc(Cl)sc12` [Compound 678] the IC50 was 500 to 1000 nM.
In the case of `CCc1cc2c(s1)CCO[C@@]21CCN(CC2CN(C(=O)CC3CCS(=O)(=O)CC3)C2)[C@@H](C)C1` [Compound 444], the IC50 is reported as < 100 nM.
Molecule `C[C@H]1C[C@@]2(CCN1Cc1cn(C)cn1)OCCc1cc(CC(F)F)sc12` [Compound 573] has an IC50 of 100 to 500 nM.
`CCc1cc2c(s1)CCO[C@@]21CCN(C[C@H]2C[C@@H](NC(=O)c3cnc4c(c3)CCC4)C2)[C@@H](C)C1` [Compound 316] was tested, and the IC50 was < 100 nM.
Work on `CCc1cc2c(s1)CCOC21CCN(Cc2ccc(C(=O)NC3CC(C)(O)C3)nc2)CC1` (stereo not drawn) [Compound 1064] yielded an IC50 of 100 to 500 nM.
For `C[C@H]1C[C@@]2(CCN1Cc1cnn(CC(O)C3(O)CCC3)c1)OC[C@@H](O)c1cc(C(F)(F)F)sc12` (stereo partly drawn) [Compound 979], the IC50 was < 100 nM.
For `C[C@H]1C[C@@]2(CCN1Cc1cnn(C[C@@H](O)C(N)=O)c1)OCCc1c2sc(C(F)(F)F)c1CO` [Compound 985, (2R)-2-hydroxy-3-[4-[[(2′S, 7R)-3-(hydroxymethyl)-2′-methyl-2-(trifluoromethyl)spiro[4,5-dihydrothieno[2,3-c]pyran-7,4′-piperidine]-1′-yl]methyl]pyrazol-1-yl]propanamide], the IC50 was < 100 nM.
`CCc1cc2c(s1)CCO[C@@]21CCN(CC#N)[C@@H](C)C1` [Compound 292] gave an IC50 of 100 to 500 nM.
`C[C@@H]1C[C@]2(CCN1Cc1cnn(C)c1)OCCc1cc(Cl)sc12` (stereo in doubt) [Compound 630, (2R,4S)-2′-chloro-2-methyl-1-((1-methyl-1H-pyrazol-4-yl)methyl)-4′,5′-dihydrospiro[piperidine-4,7′-thieno[2,3-c]pyran]] was tested, and the IC50 was < 100 nM.
In the case of `CCc1cc2c(s1)CCO[C@@]21CCN(Cc2cn(CCOC)nn2)[C@@H](C)C1` [Compound 129], the IC50 is reported as 100 to 500 nM.
In the case of `CCc1cc2c(s1)CCOC21CCN(Cc2cnn(C)c2)C(CC)C1` (stereo not drawn) [Compound 1041, 2,2′-diethyl-1-((1-methyl-1H-pyrazol-4-yl)methyl)-6′,7′-dihydrospiro[piperidine-4,4′-thieno [3,2-c]pyran]], the IC50 is reported as < 100 nM.
For `CCc1cc2c(s1)CCO[C@@]21CCN(CC2CN(C(=O)C3CCS(=O)(=O)N3)C2)[C@@H](C)C1` (stereo partly drawn) [Compound 446], the IC50 was < 100 nM.
With `CC1COC2(CCN(Cc3cn(CCS(C)(=O)=O)nn3)[C@@H](C)C2)c2cc(Cl)sc21` (stereo partly drawn) [Compound 536] the IC50 was < 100 nM.
With `CCc1cc2c(s1)CCO[C@@]21CCN(CC(O)CC(F)(F)F)[C@@H](C)C1` (stereo partly drawn) [Compound 244] the IC50 was 100 to 500 nM.
`C[C@H]1C[C@@]2(CCN1CC1CCOC1)OCCc1cc(CC(F)F)sc12` (stereo partly drawn) [Compound 583] gave an IC50 of 100 to 500 nM.
With `CCc1cc2c(s1)CCOC21CCN(Cc2cn(CC(C)(CO)COC)nn2)C(C)C1` (stereo not drawn) [Compound 101] the IC50 was 100 to 500 nM.
`CCc1cc2c(s1)CCO[C@@]21CCN(CC2CN(C(=O)CCCc3c[nH]nn3)C2)[C@@H](C)C1` [Compound 471] was tested, and the IC50 was < 100 nM.
Molecule `CCc1cc2c(s1)CCOC21CCN(Cc2cn(C3CC(F)(F)C3)nn2)CC1` [Compound 1105] has an IC50 of 500 to 1000 nM.
With `C[C@H]1C[C@@]2(CCN1Cc1cnc(NC(C)(C)CO)nc1)OC[C@](O)(C(F)F)c1cc(Cl)sc12` [Compound 830] the IC50 was < 100 nM.
`CCc1cc2c(s1)CCOC21CCN(Cc2cnn(C)c2)CC1` [Compound 1138] showed an IC50 of 100 to 500 nM.
`CCc1cc2c(s1)CCOC21CCN(Cc2cn(C3CC3)nn2)CC1` [Compound 1112] gave an IC50 of 500 to 1000 nM.
`C[C@H]1C[C@@]2(CCN1Cc1cnccn1)OC[C@H](O)c1cc(Cl)sc12` [Compound 778] was tested, and the IC50 was 500 to 1000 nM.
In the case of `C[C@H]1C[C@@]2(CCN1Cc1cn(CC(CO)CO)nn1)OCCc1cc(Cl)sc12` [Compound 628], the IC50 is reported as 100 to 500 nM.
With `CCc1cc2c(s1)CCOC21CCN(Cc2ccc(NC3CN(S(C)(=O)=O)C3)nc2)[C@@H](C)C1` (stereo partly drawn) [Compound 216] the IC50 was < 100 nM.
`Cc1cc2c(s1)[C@]1(CCN(Cc3cnn(CCS(C)(=O)=O)c3)[C@@H](C)C1)OCC2` [Compound 1026] was tested, and the IC50 was < 100 nM.
`C[C@H]1C[C@@]2(CCN1Cc1ncn3ccccc13)OCCc1cc(Cl)sc12` [Compound 686] showed an IC50 of 500 to 1000 nM.
`CCc1cc2c(s1)CCO[C@@]21CCN(CC2CN(C(=O)CC3CS(=O)(=O)C3)C2)[C@@H](C)C1` [Compound 450] was tested, and the IC50 was 100 to 500 nM.
For `CCc1cc2c(s1)CCO[C@@]21CCN(C[C@H]2C[C@@H](NC(=O)C(C)S(C)(=O)=O)C2)[C@@H](C)C1` (stereo partly drawn) [Compound 341], the IC50 was < 100 nM.
`C[C@H]1C[C@@]2(CCN1Cc1cnn(CC(C)(CO)CO)c1)OC[C@](O)(C(F)F)c1cc(Cl)sc12` [Compound 833] was tested, and the IC50 was < 100 nM.
Molecule `CCc1cc2c(s1)CCO[C@@]21CCN(Cc2cn(C(C)(C)C(N)=O)nn2)[C@@H](C)C1` [Compound 149] has an IC50 of 500 to 1000 nM.
`C[C@H]1C[C@@]2(CCN1Cc1ccc(OCCO)cc1)OC[C@H](O)c1cc(Cl)sc12` [Compound 775] was tested, and the IC50 was < 100 nM.
In the case of `C[C@H]1C[C@@]2(CCN1Cc1cnn(CC3(O)CCS(=O)(=O)CC3)c1)OCCc1c2sc(C(F)(F)F)c1CO` [Compound 947], the IC50 is reported as < 100 nM.
For `CCc1cc2c(s1)CCO[C@@]21CCN(CC2CN(C(=O)Cc3ccncn3)C2)[C@@H](C)C1` [Compound 441], the IC50 was < 100 nM.
Molecule `CCc1cc2c(s1)CCO[C@@]21CCN(C[C@H]2C[C@@H](NC(=O)[C@H]3CCCO3)C2)[C@@H](C)C1` [Compound 368] has an IC50 of 100 to 500 nM.
In the case of `CCc1cc2c(s1)CCO[C@@]21CCN(C[C@H]2C[C@@H](NC(=O)c3ccc(=O)[nH]n3)C2)[C@@H](C)C1` [Compound 349], the IC50 is reported as < 100 nM.
In the case of `CCc1cc2c(s1)CCOC21CCN(Cc2cn(CC(COC)OC)nn2)C(C)C1` (stereo not drawn) [Compound 137], the IC50 is reported as < 100 nM.
Molecule `CCc1cc2c(s1)CCO[C@@]21CCN(Cc2cn(CCOCCOCCOCCO)nn2)[C@@H](C)C1` [Compound 197] has an IC50 of 100 to 500 nM.
In the case of `C[C@H]1C[C@@]2(CCN1Cc1cnn(C)c1)OCC(O)c1sc(C(F)(F)F)cc12` (stereo partly drawn) [Compound 542, (2′S,4R)-2′-methyl-1′-[(1-methylpyrazol-4-yl)methyl]-2-(trifluoromethyl)spiro[6,7-dihydrothieno[3,2-c]pyran-4,4′-piperidine]-7-ol], the IC50 is reported as < 100 nM.
Work on `CC(C)Cc1cc2c(s1)CCO[C@@]21CCN(Cc2cn(CCS(C)(=O)=O)nn2)[C@@H](C)C1` [Compound 514] yielded an IC50 of 100 to 500 nM.
For `CCc1cc2c(s1)CCO[C@@]21CCN(CC2CN(C(=O)c3ccc(=O)[nH]c3)C2)[C@@H](C)C1` [Compound 485], the IC50 was < 100 nM.
For `CCc1cc2c(s1)CCOC21CCN(Cc2cn(CC(CC)CO)nn2)C(C)C1` (stereo not drawn) [Compound 115], the IC50 was < 100 nM.
